From patent US20250041335A1, “PERCARBONATE COMPOSITIONS AND USES THEREOF” (ThermoLife International, LLC, priority 2023, published 2025)

What was measured:
[1] = label language of products on the market; cited from earlier work
human subject = details: person, 2 grams oral, two 000 capsules, just before kayaking
[2] = 2 grams oral, two 000 capsules, immediately before exercise, all subjects, self-described
[3] = subject with diabetes, 2 grams oral, self-described
[4] = ingested before exercise, humans

SMILES: O=C([O-])[O-].O=C([O-])[O-].OO.OO.OO.[Na+].[Na+].[Na+].[Na+] [sodium percarbonate]
- effects of ingestion per product poisoning warning [1]: may cause bloating, belching, irritation of the mouth and throat, nausea, vomiting, abdominal pain and diarrhea
- endurance (human subjects; [2]): increased
- lactic acid burn (human subjects; [2]): reduced
- recovery during and after the session of exercise (human subjects; [2]): improved
- strength (human subjects; [2]): increased
- leg ache (human subjects; person, 2 grams oral before StairMaster cardio session after leg training, self-described): didn't ache as much as usual
- endurance levels (human subjects; person, 2 grams oral before StairMaster cardio session after leg training, without breaking fast): definitely better than normal
- breathing (human subjects; [3]): feels good
- recovery between sets (human subjects; [3]): quicker
- stamina/endurance through back workout and cardio (human subjects; [3]): still feel like I could keep going
- detrimental gastrointestinal effects (nausea, diarrhea) (humans; doses of 2-10 grams in humans, preferably capsule form): did not result in nausea, diarrhea or any other detrimental gastrointestinal effects
- endurance (humans; [4]): increased
- lactic acid "burn" (humans; [4]): decreased
- recovery from exercise (humans; [4]): improved
- stimulatory effects like those of caffeine and other stimulants (humans; [4]): did not have any appreciable stimulatory effects
- strength (humans; [4]): increased
- burning in muscles (human subject): did not feel any burning in their muscles
- endurance (human subject): greatly increased
